Literature values in US20220288358A1, “Drug-Coated Balloon Controllable In Drug Metabolism And Preparation Method Therefor” (Shanghai HeartCare Medical Technology Corporation Limited, priority 2019, published 2022).
“Also recorded” adds a separate entry of the source.

target: FKBP12 protein (Homo sapiens, UniProt P62942); conditions: rank order from strong to weak; stated without data
Sequence (P62942 whole entry, species assumed): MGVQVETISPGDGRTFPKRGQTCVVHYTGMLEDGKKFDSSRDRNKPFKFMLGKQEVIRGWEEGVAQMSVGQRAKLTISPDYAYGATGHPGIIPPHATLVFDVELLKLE

Structure (SMILES)	ability to bind FKBP12 protein
CCC(C)(C)C(=O)C(=O)N1CCC[C@H]1C(=O)OCCCc1cccnc1 [drug a, 3-pyridin-3-ylpropyl-(2 S)-1-(3,3-dimethyl-2-oxo-pentanoyl)-pyrrolidine-2-carboxylate]	from strong to weak is drug c, drug b, and drug a
CCOC(=O)[C@H](CC(C)C)NC(=O)[C@@H]1CSCCN1S(=O)(=O)c1ccc(C)cc1 [drug b, (3R)-4-(p-Toluenesulfonyl)-1,4-thiazane-3-carboxylicacid-L-leucine ethyl ester]	from strong to weak is drug c, drug b, and drug a
Cc1ccc(S(=O)(=O)N2CCSC[C@H]2C(=O)N[C@@H](Cc2ccccc2)C(=O)OCc2ccccc2)cc1 [drug c, (3R)-4-(p-Toluenesulfonyl)-1,4-thiazane-3-carboxylic acid-L-phenylalanine benzyl ester]	stronger than that of drug a; also recorded: from strong to weak is drug c, drug b, and drug a
